Measurements: patent US9018388B2, “Pesticidal compositions and processes related thereto” (Dow AgroSciences LLC, priority 2012, dated 2015)

How the values were obtained:
Type in all cases: in vivo
[1] = test system: Beet Armyworm (BAW) (Spodoptera exigua); assay: Bioassay on beet armyworm (BAW), 128-well diet tray assay; conditions: Spodoptera exigua; Beet armyworm, 50 μg/cm^2; read-out: % Mortality BAW 50 μg/cm^2
Procedure, shortened: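 Second-instar Spodoptera exigua larvae, one to five per well, on artificial diet treated with 50 μg/cm^2 compound in 90:10 acetone-water and dried, eight wells per compound. Held at 25 °C, 14:10 light-dark for five to seven days; percent mortality averaged over wells.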

[2] = test system: Green Peach Aphid (GPA) (Myzus persicae); assay: Bioassay on green peach aphid (GPA), foliar spray on cabbage seedlings; conditions: 72 h, read-out: % Mortality GPA 200 ppm
Experimental: Bioassays on Green Peach Aphid (“GPA”) (Myzus persicae)
Certain molecules disclosed in this document were tested against GPA using procedures described in the following example. In the reporting of the results, the “GPA Rating Table” was used (See Table Section).
Cabbage seedlings grown in 3-inch pots, with 2-3 small (3-5 cm) true leaves, were used as test substrate. The seedlings were infested with 20-50 GPA (wingless adult and nymph stages) one day prior to chemical application. Four pots with individual seedlings were used for each treatment. Test compounds (2 mg) were dissolved in 2 mL of acetone/methanol (1:1) solvent, forming stock solutions of 1000 ppm test compound. The stock solutions were diluted 5× with 0.025% Tween 20 in H2O to obtain the solution at 200 ppm test compound. A hand-held aspirator-type sprayer was used for spraying a solution to both sides of […] leaves until runoff. Reference plants (solvent check) were sprayed with the diluent only containing 20% by volume of acetone/methanol (1:1) solvent. Treated plants were held in a holding room for three days at approximately 25° C. and ambient relative humidity (RH) prior to grading. Evaluation was conducted by counting the number of live aphids per plant under a microscope. Percent Control was measured by using Abbott's correction formula (W. S. Abbott, “A Method of Computing the Effectiveness of an Insecticide” J. Econ. Entomol. 18 (1925), pp. 265-267) as follows. Corrected%Control=100*(X−Y)/X • where • X=No. of live aphids on solvent check plants and • Y=No. of live aphids on treated plants
The results are indicated in the table entitled “Table 5: Biological Results” (See Table Section).

[3] = test system: Corn Earworm (CEW) (Helicoverpa zea); assay: Bioassay on corn earworm (CEW), 128-well diet tray assay; conditions: Helicoverpa zea; Corn earworm, 50 μg/cm^2; read-out: % Mortality CEW 50 μg/cm^2
Procedure, shortened: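 Second-instar Helicoverpa zea larvae (one to five per well) placed on artificial diet treated with 50 μg/cm^2 compound in 90:10 acetone-water, dried, eight wells per compound. Held at 25 °C, 14:10 light-dark, five to seven days; percent mortality averaged over wells.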

| Structure (SMILES) | pest or weed control at 50 µg/cm2, 50 µg/cm2 [1] | pest or weed control at 200 ppm [2] | pest or weed control at 50 µg/cm2, 50 µg/cm2 [3] |
| --- | --- | --- | --- |
| O=C1CS/C(=N\N=C\c2ccc(-c3ncn(-c4ccc(OC(F)(F)F)cc4)n3)cc2)N1c1ccccc1-c1ccccc1 [Compound 96C] | 50 to 100% | 0 to 80% | 50 to 100% |
| CCc1cccc(C)c1N1C(=O)CS/C1=N\N=C\c1ccc(-c2ncn(-c3ccc(OC(F)(F)F)cc3)n2)cc1 [Compound 111C] | 50 to 100% | 0 to 80% | 50 to 100% |
| O=C1CS/C(=N\N=C\c2ccc(-c3ncn(-c4ccc(OC(F)(F)F)cc4)n3)cc2)N1c1ccccc1C1CC1 [Compound 112C] | 50 to 100% | 0 to 80% | 50 to 100% |
| CC(C)=Cc1ccccc1N1C(=O)CS/C1=N\N=C\c1ccc(-c2ncn(-c3ccc(OC(F)(F)F)cc3)n2)cc1 [Compound 121C] | 50 to 100% | 0 to 80% | 50 to 100% |
| CC(C)c1ccccc1N1CCS/C1=N\N=C\c1ccc(-c2ncn(-c3ccc(OC(F)(F)F)cc3)n2)cc1 [Compound 132C] | 50 to 100% | 0 to 80% | 50 to 100% |
| CCc1ccccc1N1CCS/C1=N\N=C\c1ccc(-c2ncn(-c3ccc(OC(F)(F)F)cc3)n2)cc1 [Compound 133C] | 50 to 100% | 0 to 80% | 50 to 100% |
| COc1cc(C)c(N2CCS/C2=N\N=C\c2ccc(-c3ncn(-c4ccc(OC(F)(F)F)cc4)n3)cc2)c(C)c1 [Compound 138C] | 50 to 100% | 0 to 80% | 50 to 100% |
| Cc1cc(C)c(N2CCS/C2=N\N=C\c2ccc(-c3ncn(-c4ccc(OC(F)(F)F)cc4)n3)cc2)c(C)c1 [Compound 139C] | 50 to 100% | 0 to 80% | 50 to 100% |
| COc1ccccc1N1CCS/C1=N\N=C\c1ccc(-c2ncn(-c3ccc(OC(F)(F)F)cc3)n2)cc1 [Compound 140C] | 50 to 100% | 0 to 80% | 50 to 100% |
| FC(F)(F)Oc1ccc(-n2cnc(-c3ccc(/C=N/N=C4\SCCN4c4ccccc4C4CC4)cc3)n2)cc1 [Compound 145C] | 50 to 100% | 0 to 80% | 50 to 100% |
| CCOc1ccccc1N1CCS/C1=N\N=C\c1ccc(-c2ncn(-c3ccc(OC(F)(F)F)cc3)n2)cc1 [Compound 146C] | 50 to 100% | 0 to 80% | 50 to 100% |
| COc1cccc(N2CCS/C2=N\N=C\c2ccc(-c3ncn(-c4ccc(OC(F)(F)F)cc4)n3)cc2)c1 [Compound 147C] | 50 to 100% | 0 to 80% | 50 to 100% |
| CC(C)=Cc1ccccc1N1CCS/C1=N\N=C\c1ccc(-c2ncn(-c3ccc(OC(F)(F)F)cc3)n2)cc1 [Compound 151C] | 50 to 100% | 0 to 80% | 50 to 100% |
| Cc1ccccc1N1/C(=N/N=C/c2ccc(-c3ncn(-c4ccc(OC(F)(F)F)cc4)n3)cc2)SCC1C (stereo not drawn) [Compound 154C] | 50 to 100% | 0 to 80% | 50 to 100% |
| CCc1cccc(C)c1N1/C(=N/N=C/c2ccc(-c3ncn(-c4ccc(OC(F)(F)F)cc4)n3)cc2)SCC1C (stereo not drawn) [Compound 156C] | 50 to 100% | 0 to 80% | 50 to 100% |
| CC1CS/C(=N\N=C\c2ccc(-c3ncn(-c4ccc(OC(F)(F)F)cc4)n3)cc2)N1c1c(Cl)cccc1Cl (stereo not drawn) [Compound 157C] | 50 to 100% | 0 to 80% | 50 to 100% |
